Source: PubChem BioAssay AID256 (DTP/NCI, 2004)
Values joined by “and” are separate entries in the source; they are usually repeats but may differ in a detail not shown here. Identical values can stand only once. Inconclusive results and toxic doses are left out. The calls were made as follows: active = survival T/C of 150% or more; inactive = T/C below 125% in these data.

Test system: CD2F1 mice, L1210 leukemia ip, survival T/C
Assay: NCI In Vivo Anticancer Drug Screen. Data for tumor model L1210 Leukemia (intraperitoneal) in CD2F1 (CDF1) mice
Conditions: higher = longer survival
Method in brief: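 Activity against a transplanted murine tumor was judged by comparing the compound group with a vehicle group. The outcome in the treated animals was divided by that in the controls.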

[1] = endpoint: mean survival time, dose: 25.0 mg/kg/injection, schedule: Q04DX003 (ip), vehicle: saline with Tween-80
[2] = endpoint: mean survival time, dose: 50.0 mg/kg/injection, schedule: Q04DX003 (ip), vehicle: saline with Tween-80
[3] = endpoint: mean survival time, dose: 100.0 mg/kg/injection, schedule: Q04DX002 (ip), vehicle: saline with Tween-80
[4] = endpoint: mean survival time, dose: 100.0 mg/kg/injection, schedule: Q04DX003 (ip), vehicle: saline with Tween-80
[5] = endpoint: mean survival time, dose: 200.0 mg/kg/injection, schedule: Q04DX002 (ip), vehicle: saline with Tween-80
[6] = endpoint: mean survival time, dose: 400.0 mg/kg/injection, schedule: Q04DX002 (ip), vehicle: saline with Tween-80
[7] = endpoint: mean survival time, dose: 100.0 mg/kg/injection, schedule: Q01DX009 (ip), vehicle: saline with Tween-80
[8] = endpoint: mean survival time, dose: 200.0 mg/kg/injection, schedule: Q01DX009 (ip), vehicle: saline with Tween-80
[9] = endpoint: mean survival time, dose: 400.0 mg/kg/injection, schedule: Q01DX009 (ip), vehicle: saline with Tween-80
[10] = endpoint: mean survival time, dose: 100.0 mg/kg/injection, schedule: Q04DX003 (ip), vehicle: saline
[11] = endpoint: mean survival time, dose: 200.0 mg/kg/injection, schedule: Q04DX003 (ip), vehicle: saline

Measured: T/C

CC(=O)C(CN(C)C)C(C)=O
inactive: endpoint: mean survival time, dose: 75.0 mg/kg/injection, schedule: Q01DX001 (ip), vehicle: other 106 % of control | endpoint: mean survival time, dose: 150.0 mg/kg/injection, schedule: Q01DX001 (ip), vehicle: other 106 % of control

O=S(=O)(F)c1ccc(O)cc1
inactive: endpoint: mean survival time, dose: 25.0 mg/kg/injection, schedule: Q01DX009 (ip), vehicle: saline + alcohol 93 % of control | [1] 93 % of control | endpoint: mean survival time, dose: 50.0 mg/kg/injection, schedule: Q01DX001 (ip), vehicle: saline with Tween-80 96 % of control | endpoint: mean survival time, dose: 50.0 mg/kg/injection, schedule: Q01DX009 (ip), vehicle: saline + alcohol 95 % of control and 100 % of control | [2] 93 % of control | endpoint: mean survival time, dose: 100.0 mg/kg/injection, schedule: Q01DX001 (ip), vehicle: saline with Tween-80 95 % of control | endpoint: mean survival time, dose: 100.0 mg/kg/injection, schedule: Q01DX009 (ip), vehicle: saline + alcohol 93 % of control and 95 % of control | [3] 103 % of control and 107 % of control | [4] 101 % of control

COC(=O)c1cccn1C(=O)c1ccc(C)c(OCc2ccccc2)c1[N+](=O)[O-]
inactive: [3] 86 % of control | [5] 93 % of control | [6] 93 % of control

O=C(O)/C=C/C(=O)NCCCCCCNC(=O)/C=C/C(=O)O
inactive: endpoint: mean survival time, dose: 100.0 mg/kg/injection, schedule: Q01DX009 (ip), vehicle: saline 91 % of control | endpoint: mean survival time, dose: 200.0 mg/kg/injection, schedule: Q01DX009 (ip), vehicle: saline 94 % of control | endpoint: mean survival time, dose: 400.0 mg/kg/injection, schedule: Q01DX009 (ip), vehicle: saline 91 % of control

CCCCCCCCCCCC1=NC(CO)(CO)CO1
inactive: [7] 96 % of control | [8] 90 % of control | [9] 93 % of control

COC(=O)c1cc(C2OC3OC(C)(C)OC3C2OCc2ccccc2)nn1-c1ccc([N+](=O)[O-])cc1 (stereo not drawn)
inactive: endpoint: median survival time, dose: 11.5 mg/kg/injection, schedule: Q01DX005 (ip), vehicle: other 101 % of control | endpoint: median survival time, dose: 23.0 mg/kg/injection, schedule: Q01DX005 (ip), vehicle: other 100 % of control | endpoint: median survival time, dose: 46.0 mg/kg/injection, schedule: Q01DX005 (ip), vehicle: other 100 % of control | endpoint: median survival time, dose: 92.0 mg/kg/injection, schedule: Q01DX005 (ip), vehicle: other 100 % of control

Nc1ccc(S(=O)(=O)O)c2ccccc12
inactive: endpoint: mean survival time, dose: 50.0 mg/kg/injection, schedule: Q01DX009 (ip), vehicle: Klucel (hydroxypropylcellulose) (HPC) 86 % of control | endpoint: mean survival time, dose: 100.0 mg/kg/injection, schedule: Q01DX009 (ip), vehicle: Klucel (hydroxypropylcellulose) (HPC) 104 % of control | [10] 97 % of control | endpoint: mean survival time, dose: 200.0 mg/kg/injection, schedule: Q01DX009 (ip), vehicle: Klucel (hydroxypropylcellulose) (HPC) 104 % of control | [11] 101 % of control | endpoint: mean survival time, dose: 400.0 mg/kg/injection, schedule: Q04DX003 (ip), vehicle: saline 103 % of control

CC1CC1C(=O)O (stereo not drawn)
inactive: [10] 102 % of control | [11] 102 % of control

COC(=O)C1CCCCCC1=O (stereo not drawn)
inactive: [4] 96 % of control | endpoint: mean survival time, dose: 200.0 mg/kg/injection, schedule: Q04DX003 (ip), vehicle: saline with Tween-80 94 % of control | endpoint: mean survival time, dose: 400.0 mg/kg/injection, schedule: Q04DX003 (ip), vehicle: saline with Tween-80 88 % of control

O=C(CCCN1CCC(O)(c2ccc(Cl)cc2)CC1)c1ccc(N2CCC(O)CC2)cc1
inactive: [3] 104 % of control | [5] 93 % of control | [6] 93 % of control

Cc1cccc(C)c1NC(=S)NNC(=O)NNC(=S)Nc1c(C)cccc1C
inactive: [7] 95 % of control | [8] 95 % of control | [9] 105 % of control

O=[N+]([O-])c1cc(C(F)(F)F)ccc1F
inactive: [1] 110 % of control | [2] 98 % of control | [4] 105 % of control

CC1(C)N=C(N)N=C(N)N1c1cccc(OCCOc2ccc(NC(=O)CBr)cc2)c1
inactive: endpoint: mean survival time, dose: 6.25 mg/kg/injection, schedule: Q01DX009 (ip), vehicle: other 102 % of control | endpoint: mean survival time, dose: 12.5 mg/kg/injection, schedule: Q01DX009 (ip), vehicle: other 113 % of control | endpoint: mean survival time, dose: 25.0 mg/kg/injection, schedule: Q01DX009 (ip), vehicle: other 110 % of control | endpoint: mean survival time, dose: 50.0 mg/kg/injection, schedule: Q01DX009 (ip), vehicle: other 113 % of control
